# Measurements taken from article PMC7352759, “S(+)-(2E)-N-(2-Hydroxypropyl)-3-Phenylprop-2-Enamide (KM-568): A Novel Cinnamamide Derivative with Anticonvulsant Activity in Animal Models of Seizures and Epilepsy” (International Journal of Molecular Sciences, 2020).
# Tests used:
# Assay type in all cases: in vivo
# hippocampal kindled rats = assay: Hippocampal kindled rat model; conditions: for Results (protected/tested animals) / Seizure Duration ± SEM / Seizure Score ± SEM (Racine scale): i.p.
# Description: The electrodes were implanted in brains one week prior to experiments. Then, rats were stimulated with suprathreshold stimuli of 200 µA for 10 sec at 50 Hz every 30 min for 6 h on alternate days until fully kindled. One week after reaching the fully kindled state, the effect of 23 and 27 mg/kg, i.p. of KM-568 in the groups of 5–6 rats were evaluated. The tests were performed at different time points (0–2.25 h) after compound administration. The results were scored as behavioral seizure score (according to Racine scale) and after discharge duration. The protection was noted if the seizure score was 3 or less.
# mice = assay: Neurotoxicity (TOX), rotarod test, mice
# Description: (§1) In mice, the neurological deficit was measured by the rotarod test in which a 1 inch diameter knurled plastic rod rotating at 6 rpm was used. Tests were performed at 0.25 h or 0.5 h of intraperitoneal or oral administration of the certain dose of the compounds KM-568. Each mouse was placed on the rod. If the animal was not able to remain on the rod for at least 1 min in each of three trials, the neurotoxicity was scored. In rats, the neurological deficit was measured in behavioral tests and scored when ataxia and loss of placing response and muscle tone were observed. Tests in rats were performed after 0.5 h of intraperitoneal administration or 1.0 h of oral administration of the certain dose of compound KM-568. TD50s were calculated by probit analysis.
# [1] = Neurotoxicity (TOX), rotarod test, mice; conditions: mouse, in vivo, rotarod, 0.25 h, 95% confidence interval in parentheses
# Description: as §1
# CF-1 mice [2] = assay: Chemoconvulsant test, bicuculine; conditions: 0.25 h
# Description: Initially, compound KM-568 was administered i.p. at 130.0 mg/kg in two groups of CF-1 mice (n = 8). After 0.25 h, the subcutaneous injections of either bicuculine (2.7 mg/kg) or picrotoxin (2.5 mg/kg) were performed. The, animals were placed in isolation cages and observed for 30 min (in a bicuculine assay) or 45 min (in a picrotoxin assay) for the presence or absence of an episode of a clonic seizure.
# CF-1 mice [3] = assay: Intravenous metrazol seizure threshold test (ivMET); conditions: 0.25 h, mean ± SEM; for Time to clonus / Time to twitch: ten animals
# Description: Then, 0.5% metrazol solution was then infused at a previously determined time-to-peak effect (0.25 h). The infusion was done at a constant rate of 0.34 mL/min through a tube cannulating a lateral tail vein of a test animal. The time from the start of the infusion to the appearance of the first twitch (time to twitch in sec) and the onset of sustained clonus (time to clonus in sec) were recorded. These times were also converted to the dose of metrazol (in mg/kg) causing first twitch and clonus.
# [4] = test system: LTG-resistant amygdala kindled Sprague–Dawley rats; assay: Lamotrigine (LTG) resistant amygdala kindled seizure model in rats; conditions: 0.25 h
# Description: Anesthetized male Sprague–Dawley rats (250–300 g) were surgically implanted with an electrode into the left amygdala. After a one-week recovery period, kindling was initiated. A suprathreshold stimulus (200 µA) was delivered daily until all animals display stage 4–5 seizures. Lamotrigine at 5 mg/kg i.p. was also administered daily during kindling acquisition. One week after all animals were kindled, the animals received a challenge dose of lamotrigine (30 mg/kg, i.p.) to confirm LTG-resistance. On the 4th day, compound KM-568 was administered i.p. at the doses 20, 40, and 80 mg/kg. Fifteen minutes after administration, rats were challenged with the kindling stimulus. Results were provided as seizure score (according to Racine scale, protection defined as less than 3) and after discharge duration (in sec).
structure (smiles),measurement,setting,value
"C[C@H](O)CNC(=O)/C=C/c1ccccc1 [KM-568, S(+)-(2E)-N-(2-hydroxypropyl)-3-phenylprop-2-enamide]",ED50,"hippocampal kindled rats; Rattus norvegicus, ip",24.2 mg/kg
same,Results (protected/tested animals),"hippocampal kindled rats; 23 mg/kg, 15 min",2/6
same,Seizure Duration ± SEM,"hippocampal kindled rats; 23 mg/kg, 15 min",55.67 ± 6.44 s
same,Seizure Score ± SEM (Racine scale),"hippocampal kindled rats; 23 mg/kg, 15 min",3.67 ± 0.84
same,Seizure Duration ± SEM,"hippocampal kindled rats; 23 mg/kg, 45 min",65.83 ± 14.61 s
same,Seizure Score ± SEM (Racine scale),"hippocampal kindled rats; 23 mg/kg, 45 min",5.0 ± 0.0
same,Seizure Duration ± SEM,"hippocampal kindled rats; 23 mg/kg, 75 min",56.67 ± 6.96 s
same,Seizure Score ± SEM (Racine scale),"hippocampal kindled rats; 23 mg/kg, 75 min",5.0 ± 0.0
same,Seizure Duration ± SEM,"hippocampal kindled rats; 23 mg/kg, 100 min",57.83 ± 9.27 s
same,Seizure Score ± SEM (Racine scale),"hippocampal kindled rats; 23 mg/kg, 100 min",5.0 ± 0.0
same,Seizure Duration ± SEM,"hippocampal kindled rats; 23 mg/kg, 135 min",55.17 ± 9.48 s
same,Seizure Score ± SEM (Racine scale),"hippocampal kindled rats; 23 mg/kg, 135 min",5.0 ± 0.0
same,Results (protected/tested animals),"hippocampal kindled rats; 27 mg/kg, 15 min",4/5
same,Seizure Duration ± SEM,"hippocampal kindled rats; 27 mg/kg, 15 min",50.4 ± 3.08 s
same,Seizure Score ± SEM (Racine scale),"hippocampal kindled rats; 27 mg/kg, 15 min",1.8 ± 0.97
same,Seizure Score ± SEM (Racine scale),"hippocampal kindled rats; 27 mg/kg, 45 min",4.2 ± 0.80
same,Seizure Duration ± SEM,"hippocampal kindled rats; 27 mg/kg, 75 min",70.6 ± 27.57 s
same,Seizure Score ± SEM (Racine scale),"hippocampal kindled rats; 27 mg/kg, 75 min",3.4 ± 0.98
same,Seizure Duration ± SEM,"hippocampal kindled rats; 27 mg/kg, 100 min",62.5 ± 10.71 s
same,Seizure Score ± SEM (Racine scale),"hippocampal kindled rats; 27 mg/kg, 100 min",5.0 ± 0.0
same,Seizure Duration ± SEM,"hippocampal kindled rats; 27 mg/kg, 135 min",95.0 ± 17.78 s
same,Seizure Score ± SEM (Racine scale),"hippocampal kindled rats; 27 mg/kg, 135 min",5.0 ± 0.0
same,TOX Results (animals displaying neurotoxicity/animals used),"mice; i.p., 100 mg/kg, 0.25 h",0/8
same,TOX Results (animals displaying neurotoxicity/animals used),"mice; i.p., 125 mg/kg, 0.25 h",0/8
same,TOX Results (animals displaying neurotoxicity/animals used),"mice; i.p., 138 mg/kg, 0.25 h",2/8
same,TOX Results (animals displaying neurotoxicity/animals used),"mice; i.p., 150 mg/kg, 0.25 h",5/8
same,TOX Results (animals displaying neurotoxicity/animals used),"mice; i.p., 170 mg/kg, 0.25 h",7/8
same,TOX Results (animals displaying neurotoxicity/animals used),"mice; i.p., 200 mg/kg, 0.25 h",8/8
same,TOX Results (animals displaying neurotoxicity/animals used),"mice; p.o., 200 mg/kg",0/8
same,TOX Results (animals displaying neurotoxicity/animals used),"mice; p.o., 300 mg/kg",3/8
same,TOX Results (animals displaying neurotoxicity/animals used),"mice; p.o., 350 mg/kg",5/8
same,TOX Results (animals displaying neurotoxicity/animals used),"mice; p.o., 400 mg/kg",5/8
same,TOX Results (animals displaying neurotoxicity/animals used),"mice; p.o., 500 mg/kg",7/8
same,TD50 at 0.25 h,[1]; ip,148 mg/kg
same,TD50 at 0.25 h,[1]; po,344 mg/kg
same,ED50,"CF-1 mice [2]; Mus musculus, ip",> 130 mg/kg
same,Bicuculine Results (protected/tested animals),"CF-1 mice [2]; i.p., 130 mg/kg",0/8
same,Clonus (calculated metrazol dose causing clonus),CF-1 mice [3]; 44 mg/kg i.p.,50.8 ± 3.5 mg/kg
same,Twitch (calculated metrazol dose causing first twitch),CF-1 mice [3]; 44 mg/kg i.p.,37.8 ± 1.4 mg/kg
same,Time to clonus,CF-1 mice [3]; 44 mg/kg i.p.,48.2 ± 3.5 s
same,Time to twitch,CF-1 mice [3]; 44 mg/kg i.p.,35.8 ± 1.5 s
same,Clonus (calculated metrazol dose causing clonus),CF-1 mice [3]; 148 mg/kg i.p.,80.2 ± 3.2 mg/kg
same,Twitch (calculated metrazol dose causing first twitch),CF-1 mice [3]; 148 mg/kg i.p.,61.3 ± 2.2 mg/kg
same,Time to clonus,CF-1 mice [3]; 148 mg/kg i.p.,75.9 ± 2.9 s
same,Time to twitch,CF-1 mice [3]; 148 mg/kg i.p.,57.9 ± 1.6 s
same,ED50,"[4]; Rattus norvegicus, ip",58.6 mg/kg
same,Results (protected/tested animals; protection = Racine score <3),"[4]; i.p., 20 mg/kg",0/7
same,Seizure Duration ± SD,"[4]; i.p., 20 mg/kg",140 ± 17.55 s
same,Seizure Score ± SEM,"[4]; i.p., 20 mg/kg",5.0 ± 0.0
same,Results (protected/tested animals; protection = Racine score <3),"[4]; i.p., 40 mg/kg",2/7
same,Seizure Duration ± SD,"[4]; i.p., 40 mg/kg",94.71 ± 8.72 s
same,Seizure Score ± SEM,"[4]; i.p., 40 mg/kg",3.86 ± 0.74
same,Results (protected/tested animals; protection = Racine score <3),"[4]; i.p., 80 mg/kg",5/7
same,Seizure Duration ± SD,"[4]; i.p., 80 mg/kg",56.57 ± 12.34 s
same,Seizure Score ± SEM,"[4]; i.p., 80 mg/kg",2.86 ± 0.63
same,"ED50, lamotrigine-resistant amygdala kindled rat model",[4]; i.p.,58.69 (38.09–120.15) mg/kg
